From ChEMBL document CHEMBL6127100, “Plant based steroidal and triterpenoid sapogenins: Chemistry on diosgenin and biological aspects” (Eur J Med Chem, 2024) come the findings set out here.

Structures are written as SMILES.

The test system of assay [1] is HeLa. The assay can be described thus: Cytotoxicity against human HeLa cells assessed as reduction in cell viability incubated for 24 hrs by MTT assay. The assay is classed as functional, cell-based. (Tetrazolium dyes change colour on reduction, which living cells bring about.)
For the next assay, the system named is MCF7. The assay can be described thus: Cytotoxicity against human MCF7 cells assessed as reduction in cell viability incubated for 24 hrs by MTT assay. Format: functional, cell-based. To be noted: MCF7, 24 h.
Assay [2] has as its system HeLa. The assay can be described thus: Antiproliferative activity against human HeLa cells assessed as reduction in cell growth by MTT assay. The assay is classed as functional, cell-based.
For another assay, the system named is Jurkat. The assay can be described thus: Cytotoxicity against human Jurkat cells assessed as reduction in cell viability incubated for 24 hrs by MTT assay. The assay is classed as functional, cell-based.
The test system of a further assay is MDA-MB-231. The assay can be described thus: Cytotoxicity against human MDA-MB-231 cells assessed as reduction in cell viability incubated for 24 hrs by MTT assay. To be noted: MDA-MB-231, 24 h. Format: functional, cell-based.
The test system of assay [3] is RAW264.7. The assay can be described thus: Anti-inflammatory activity in LPS-induced mouse RAW264.7 cells assessed as reduction in TNF-alpha production at by ELISA. Set-up: scale not given: the % may be the effect or the level left. Format: functional. (An ELISA detects its analyte on a solid surface through an enzyme-linked reagent.)
Assay [4] relates to RAW264.7. Nature of the assay: Anti-inflammatory activity in LPS-induced mouse RAW264.7 cells assessed as inhibition of IL-6 production at by ELISA. Format: functional. More on the design: scale not given: the % may be the effect or the level left.

As a reminder, the IC50 is the point on the concentration scale where inhibition reaches its midpoint.

Take `CC(=O)O[C@H]1CC[C@@]2(C)C(=CC[C@H]3[C@@H]4C[C@@H]5O[C@H](CC[C@@H](C)CO)[C@@H](C)[C@@H]5[C@@]4(C)CC[C@@H]32)C1`: the results for the IC50 in the assay on HeLa [1] and with MCF7 were 11.4 µM and 11 µM, respectively.

On to `CC(=O)OC[C@H](C)CCC(=O)[C@@H](C)[C@H]1[C@@H](OC(C)=O)C[C@H]2[C@@H]3CC=C4C[C@H](N=[N+]=[N-])CC[C@]4(C)[C@H]3CC[C@]12C`, for which the IC50 with HeLa [2] amounted to 11.8 µM.

In the case of `CC(=O)O[C@H]1CC[C@@]2(C)C(=CC[C@H]3[C@@H]4C[C@@H]5O[C@H](CC[C@@H](C)COC(=O)N6CCN(C)CC6)[C@@H](C)[C@@H]5[C@@]4(C)CC[C@@H]32)C1`, the IC50 in the assay on Jurkat amounted to 15.8 µM; in the assay on MDA-MB-231, 13.5 µM. Besides, the Activity in the assay on RAW264.7 [3] came to 33.66%; in the assay with RAW264.7 [4], 49%.
